Key:
[1] = system: β-arrestin; experiment: β-arrestin cell assay
[2] = system: cAMP; experiment: HTRF-cAMP cell assay

## CC(C)[C@@H]1C[C@H](NCC[C@@]2(c3ccccn3)CCOC3(CCCC3)C2)c2ccnn21 [Compound I-1]
[1]; 1.5 h, read-out: β-arrestin Emax(%) Morphine is 100%
  Emax: 1.3%
[1]; comparison of Table 1 and Table 2
  bias (cAMP versus β-arrestin): good bias
[2]; 0.75 h, read-out: cAMP EC50(nM)
  EC50: 6 nM
[2]; read-out: cAMP Emax(%) Morphine is 100%
  Emax: 86.4%

— US20240109895A1, “OXASPIRO SUBSTITUTED PYRROLOPYRAZOLE DERIVATIVE, INTERMEDIATE THEREOF, AND PREPARATION METHOD THEREFOR” (SHANGHAI HAIYAN PHARMACEUTICAL TECHNOLOGY CO., LTD., priority 2020, published 2024)
